Data reported in patent publication US8450271B2, “Peptide-based scaffolds for cartilage regeneration and methods for their use” (Northwestern University, priority 2009, dated 2013).
Where no end group is shown, it is not given here. The star is where a group is joined. Lauroyl = CCCCCCCCCCCC(=O)*

Columns and labels:
recombinant TGF-β1 = recombinant TGF-β1 (Homo sapiens, UniProt P01137); conditions: among all possible 7-mer peptide sequences; cited from earlier work
[1] = system: Rabbit Full Thickness Articular Cartilage Defects; test: Animal observation and gross pathology of rabbit knee cartilage defects at 12 weeks; format: in vivo, New Zealand White Rabbits; conditions: gross examination at 12 weeks
Method: Animal study was conducted at Northwestern University (Chicago, Ill.) in accordance with a protocol approved by the University's Animal Care and Usage Committee (ACUC). Ten (10) male New Zealand White Rabbits (weighing 3-3.5 kg) were anesthetized by intramuscular injection of ketamine at 30-40 mg/kg and xylazine 5-7 mg/kg. Isoflourane (1-3%) and oxygen were supplied by face mask until the animal was induced to sedation and general anesthesia for the entire procedure. Life support monitoring was supervised by veterinarians at Northwestern University's Center for Comparative Medicine (CCM, Chicago, Ill.). Under sterile aseptic technique, a midline 2-cm incision was made with the knee flexed at 20 degrees and subsequently a medial parapatellar capsulotomy was performed and the patella was translated laterally to expose the articular surface of the trochlea. Two full thickness chondral defects 2-mm in diameter were created in the trochlea (proximal-medial and distal-lateral) using curettes. […]
Post-operatively each rabbit was given intramuscular (IM) antibiotics (Baytril 72 hours duration) and IM pain medicine (Buprenex 24 hours duration). Signs of local or systemic infection were recorded as well as the general health and recovery of the rabbits. Rabbits were also evaluated for ability to weight bear and mobility within cages. […]

[2] = system: Rabbit Full Thickness Articular Cartilage Defects; test: Histological evaluation (O'Driscoll scoring) of cartilage regeneration after microfracture in rabbit articular cartilage defect model; format: in vivo, New Zealand White Rabbits
Method: Animal study was conducted at Northwestern University (Chicago, Ill.) in accordance with a protocol approved by the University's Animal Care and Usage Committee (ACUC). Ten (10) male New Zealand White Rabbits (weighing 3-3.5 kg) were anesthetized by intramuscular injection of ketamine at 30-40 mg/kg and xylazine 5-7 mg/kg. Isoflourane (1-3%) and oxygen were supplied by face mask until the animal was induced to sedation and general anesthesia for the entire procedure. Life support monitoring was supervised by veterinarians at Northwestern University's Center for Comparative Medicine (CCM, Chicago, Ill.). Under sterile aseptic technique, a midline 2-cm incision was made with the knee flexed at 20 degrees and subsequently a medial parapatellar capsulotomy was performed and the patella was translated laterally to expose the articular surface of the trochlea. Two full thickness chondral defects 2-mm in diameter were created in the trochlea (proximal-medial and distal-lateral) using curettes. The articular cartilage, including the calcified cartilage layer, was completely removed and subchondral bone was exposed using a micro-curette as shown in FIG. 4a. Care was taken to not disrupt the subchondral bone, and sharp edges were created at the transition zone with the surrounding intact cartilage. Microfracture was performed within the defects by creating 3 holes spaced equally apart, and 2-mm deep to subchondral bone with a micro-awl. Marrow blood was seen emerging out of each microfracture hole and was allowed to infiltrate the cartilage defect (see FIG. 4b), which was then treated as described in Example 4.2 by application of the TGF-binding peptide amphiphile gel, or a control gel, with or without the addition of exogenous recombinant TGF-β1.
Post-operatively each rabbit was given intramuscular (IM) antibiotics (Baytril 72 hours duration) and IM pain medicine (Buprenex 24 hours duration). Signs of local or systemic infection were recorded as well as the general health and recovery of the rabbits. Rabbits were also evaluated for ability to weight bear and mobility within cages. At 12-weeks post-surgery rabbits were euthanized by injection of pentobarbital intravenously with a secondary measure of bilateral thoracotomy. Subsequently, the distal femur was harvested and processed for histological analysis.
Two full-thickness defects were created in each knee, resulting in 4 defects per rabbit (or 40 defects total for the 10 rabbits studied). Rabbit knees were divided into 4 groups, with both defects in each knee receiving the same treatment, and the contralateral knee serving as a control to account for any systemic effects. A total volume of 10 microliters (uL) of the test solutions were administered directly to each cartilage defect by micropipette, using sterile, disposable plastic tips. The treatment received by each group is summarized as follows:
In order to induce gelation of the peptide amphiphile solutions in situ in the defect site, 8 uL of a 12.5 mg/mL PA solution in phosphate-buffered saline (PBS) was administered followed immediately by 2 uL of a 0.5 M CaCl2 (in water), resulting in a final concentration of 10 mg/mL of the peptide amphiphile and 100 mM CaCl2. Recombinant human TGF-β1 (rhTGF-β1, Peprotech Inc.) was included in the PA solutions for Group 1, 2 and 3, in a concentration of […], resulting in a total dose of 1 ng per defect at the treatment dose of 10 uL. For animals receiving the TGF-binding peptide amphiphile (SEQ ID NO:4) this molecule was mixed at 10 mol % with the filler peptide amphiphile (SEQ ID NO:8) (a 1:9 molecular ratio). Each defect received 0.1 mg total peptide amphiphile (10 mg/mL in a 10 uL dose), either filler PA alone (Group 2) or filler PA plus TGF-binding PA (Group 3 and 4).
After the animals were sacrificed and tissue harvested at 12 weeks, extracted femur specimens were fixed in 10% neutral buffered formalin, decalcified for 24 hours, and the tissue processed for paraffin embedding. […]

[3] = O'Driscoll score = 0, 1, 2 or 3, Mean ± SD, 12-weeks post-treatment
[4] = O'Driscoll score = 0, 1 or 2, Mean ± SD, 12-weeks post-treatment

Chain of recombinant TGF-β1 (P01137 279-390 limits assumed): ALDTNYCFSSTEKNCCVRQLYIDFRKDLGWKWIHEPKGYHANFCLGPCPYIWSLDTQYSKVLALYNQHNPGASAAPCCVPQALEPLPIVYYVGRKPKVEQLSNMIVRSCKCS

## HSNGLPL
Recombinant TGF-β1
  binding to recombinant TGF-β1 (phage display): strong, specific binding sequence

## HSNGLPLGGGSEEEAAAVVV(K)-CO(CH2)10CH3 (HSNGLPLGGGSEEEAAAVVVK(Lauroyl)) [TGF-binding PA]
[1]
  macroscopic appearance of repair tissue (tissue fill, defect boundary): significantly more hyaline-like tissue filling the defects

## rhTGF-β1: Recombinant human TGF-β1 (Peprotech Inc.); Group 1: 10 uL of PBS with 1 ng of rhTGF-β1
[2]; 12 weeks, compared to controls
  qualitative assessment of histological sections (tissue morphology, defect fill, Safranin-O and Type II collagen staining): few had complete filling of the defect area
[2]; [3]
  Degenerative Changes: 2.70 ± 0.35
  Hypocellularity: 1.96 ± 0.72
  Safranin-O staining of matrix: 1.48 ± 0.60
  Surface regularity: 2.00 ± 0.80
[2]; [4]
  Bonding to adjacent cartilage: 1.33 ± 0.53
  Chondrocyte clustering: 1.26 ± 0.40
  Structural integrity: 1.07 ± 0.62
  Thickness: 1.15 ± 0.60
[2]; O'Driscoll score = 0, 2, or 4, Mean ± SD, 12-weeks post-treatment
  Cellular morphology: 2.56 ± 1.43
[2]; O'Driscoll total histological score, Mean ± SD, 12-weeks post-treatment
  Total (max. score = 24): 15.52 ± 4.74
[2]; maximum possible score of 24, 12 weeks
  O'Driscoll histological score: 15.5±4.7
[2]; number of defects, 12 weeks
  defects with <50% thickness compared to the surrounding cartilage: 1 of 9
  defects with mild chondrocyte clustering: 7 of 9
  defects with normal cellularity in the regenerated tissue: 2 of 9
  defects with regenerated tissue completely bonded to the adjacent cartilage: 3 of 9
[2]; number of remaining defects, 12 weeks
  defects with >50% but <100% (50%-100%) thickness compared to the surrounding cartilage: 8
